Measurements reported in patent publication US10954221B2, “GLP-1R agonists and uses thereof” (QILU REGOR THERAPEUTICS INC., priority 2019, dated 2021).

Columns and labels:
GLP1R [1] = molecular target: T1, GLP1R (Homo sapiens, UniProt P43220); assay: β-Arrestin-mediated GLP1R internalization assay (PathHunter U2OS cells); format: cell-based; set-up: host or cells: PathHunter engineered U2OS cells; details: averaged Bmax where applicable, Percentage of Control GLP-1 (7-37), top 10 μM, 180 min
Description: A similar assay can also be used to assess the extent of signal attenuation due to GLP-1R internalization (the Internalization Assay). In this assay, activated GLP1R Internalization cells were engineered to co-express an untagged GLP1R, Enzyme Acceptor (EA) tagged β-Arrestin, and a ProLink™ (PK) tag localized to the endosomes. Activation of the GLP1R induces β-Arrestin recruitment, which leads to internalization of the Receptor/Arrestin-EA complex in PK-tagged endosomes. This forces complementation of the two β-galactosidase enzyme fragments (EA and PK) to form a functional enzyme that hydrolyzes substrate to generate a chemiluminescent signal.
Frozen cells were quickly thawed and 10 mL of cell plating medium (provided by the kit) was added to thawed cells. Cells were stored in a 37° C. incubator and kept for approximately 48 hours until ready for the assay.
Reference and test compounds were dissolved in 100% DMSO. […] 5 μL of this solution was added to 20 μL cell medium in assay plate for a final top concentration of 10 μM. Plates were incubated at 37° C. for 180 min.
Following 180 min incubation, detection reagents were made up by combining 1 part Galacton Star Substrate with 5 parts Emerald II™ Solution, and 19 parts of PathHunter Cell Assay Buffer, respectively. 12.5 μL detection reagent was added to each well. The plates were then incubated at room temperature for 60 min. Plates were then read on Envision for 0.1 sec/well.
EC50 determinations were made from agonist dose-response curves analyzed with a curve fitting program using a 4-parameter logistic dose response equation.
Target sequence in this assay (P43220 24-463): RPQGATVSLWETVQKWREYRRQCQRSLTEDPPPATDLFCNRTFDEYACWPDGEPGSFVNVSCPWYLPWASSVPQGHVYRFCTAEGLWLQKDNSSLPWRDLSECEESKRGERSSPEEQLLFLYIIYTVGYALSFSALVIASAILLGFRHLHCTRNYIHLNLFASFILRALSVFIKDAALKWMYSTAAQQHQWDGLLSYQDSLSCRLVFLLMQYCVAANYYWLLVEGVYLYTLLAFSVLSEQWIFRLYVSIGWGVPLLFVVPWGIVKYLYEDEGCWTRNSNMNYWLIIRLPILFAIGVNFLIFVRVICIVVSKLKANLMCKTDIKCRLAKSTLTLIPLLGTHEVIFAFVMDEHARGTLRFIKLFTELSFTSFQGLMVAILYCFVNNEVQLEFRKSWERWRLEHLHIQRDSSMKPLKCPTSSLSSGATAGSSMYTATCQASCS
Target sequence in this assay (P32121 whole entry partner, the tested form may be a part): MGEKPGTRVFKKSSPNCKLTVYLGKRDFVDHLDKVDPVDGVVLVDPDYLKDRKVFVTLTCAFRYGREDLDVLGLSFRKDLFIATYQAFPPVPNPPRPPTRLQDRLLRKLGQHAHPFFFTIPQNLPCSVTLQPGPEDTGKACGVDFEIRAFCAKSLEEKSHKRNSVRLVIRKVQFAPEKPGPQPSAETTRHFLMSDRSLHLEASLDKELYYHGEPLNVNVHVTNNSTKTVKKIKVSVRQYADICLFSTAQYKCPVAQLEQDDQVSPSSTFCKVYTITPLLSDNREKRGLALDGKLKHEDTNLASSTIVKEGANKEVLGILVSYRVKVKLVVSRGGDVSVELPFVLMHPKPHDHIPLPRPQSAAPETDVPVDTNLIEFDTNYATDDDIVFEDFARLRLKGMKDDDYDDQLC

GLP1R [2] = molecular target: T1, GLP1R; assay: GLP1R cAMP assay (HTRF), HEK293/GLP-1R/CRE/Luc, Clone 4
Target sequence in this assay (P43220 24-463): as the sequence (P43220 24-463) above
Description: GLP-1R-mediated agonist activity was determined with a cell-based functional assay utilizing an HTRF (Homogeneous Time-Resolved Fluorescence) cAMP detection kit (cAMP Dynamic 2 Assay Kit; CisBio cat #62AM4PEC) that measures cAMP levels in the cell. The method is a competitive immunoassay between native cAMP produced by the cells and exogenous cAMP labeled with the dye d2. The tracer binding is visualized by a mAb anti-cAMP labeled with Cryptate. The specific signal (i.e., energy transfer) is inversely proportional to the concentration of cAMP in either standard or experimental sample.
The human GLP-1R coding sequence (NCBI Reference Sequence NM_002062) was subcloned into pcDNA3.1+/Hygro vector (Invitrogen) and transfected into HEK293/CRE/Luc parental cell line. A cell line stably expressing the receptor was isolated.
Varying concentrations of each compound to be tested (in DMSO) were diluted in DMSO to obtain 200× compound working solution first and then 50 nl compounds were added to a white 384-well assay plate (Greiner 784075) with ECHO. The final DMSO concentration was 0.5%.
Cells were removed from cryopreservation, re-suspended in 5 mL of Dulbecco's Phosphate Buffered Saline (DPBS-Sigma Cat #D8537) and centrifuged at 900×g for 5 min at 22° C. The cell pellet was then re-suspended in 1 mL of assay buffer [DPBS with 500 μM IBMX (Sigma #15879) and 0.1% BSA (Sigma #A1933). IBMX and BSA were freshly added on the day of assay]. A 10 μL sample of the cell suspension was counted on an Invitrogen Countess II to determine cell viability and cell count per mL. The remaining cell suspension was then adjusted with assay buffer to deliver 1000 viable cells per well using a Matrix Combi Multidrop reagent dispenser. 10 μL cell suspensions were added to each well
of the assay plate which already contains compound. The plate was sealed and incubated at 37° C. with 5% CO2 for 30 minutes.
Following the 30 minute incubation, 5 μL of labeled d2 cAMP and 5 μL of anti-cAMP antibody (both diluted 1:20 in cell lysis buffer; as described in the manufacturer's assay protocol) were added to each well of the assay plate. The plates were then incubated at room temperature and after 60 minutes, changes in the HTRF signal were read with an Envision multi-label plate reader using excitation of 330 nm and emissions of 615 and 665 nm. Raw data were converted to nM cAMP by interpolation from a cAMP standard curve (as described in the manufacturer's assay protocol) and the percent effect was determined relative to a saturating concentration of the full agonist GLP-17-37 (10 nM) included on each plate. EC50 determinations were made from agonist dose-response curves analyzed with a curve fitting program using a 4-parameter logistic dose response equation.

GLP1R [3] = molecular target: T1, GLP1R; set-up: Emax: dose or concentration left out as unconfirmed; details: for Emax: CHO-K1, […], read-out: β-arrestin recruitment Bmax (%)
Target sequence in this assay (P43220 24-463): as above
Target sequence in this assay (P32121 whole entry partner, the tested form may be a part): as the sequence (P32121 whole entry partner, the tested form may be a part) above

Row | β-arrestin internalization Bmax (POC) (GLP1R [1]) | EC50 (GLP1R [2]) [nM] | Emax (GLP1R [3]) [%] | β-arrestin recruitment Bmax (%) (GLP1R [3]; partial maximum relative effect at the highest concentration tested (top 10 μM), relative to Bmax of GLP-1 (7-37), PathHunter CHO-K1 GLP1R β-Arrestin cells) | SMILES
1 | 41.8 | < 15 | 33.5 | – | O=C(O)c1ccc2nc(Cc3ccc(-c4nccc(OCc5ccc(Cl)cc5F)n4)cc3F)n(C[C@@H]3CCO3)c2c1 [Compound 86, (S)-2-(4-(4-((4-chloro-2-fluorobenzyl)oxy)pyrimidin-2-yl)-2-fluorobenzyl)-1-(oxetan-2-ylmethyl)-1H-benzo[d]imidazole-6-carboxylic acid]
2 | 23.9 | < 15 | 33.1 | – | O=C(O)c1ccc2nc(Cc3ccc(-c4ccnc(OCc5ccc(Cl)cc5F)n4)cc3F)n(C[C@@H]3CCO3)c2c1 [Compound 87, (S)-2-(4-(2-((4-chloro-2-fluorobenzyl)oxy)pyrimidin-4-yl)-2-fluorobenzyl)-1-(oxetan-2-ylmethyl)-1H-benzo[d]imidazole-6-carboxylic acid]
3 | 29.2 | < 15 | 44.6 | – | O=C(O)c1ccc2nc(Cc3ccc(-c4ccc(F)c(OCc5ccc(Cl)cc5F)n4)cc3F)n(C[C@@H]3CCO3)c2c1 [Compound 88, (S)-2-(4-(6-(4-chloro-2-fluorobenzyloxy)-5-fluoropyridin-2-yl)-2-fluorobenzyl)-1-(oxetan-2-ylmethyl)-1H-benzo[d]imidazole-6-carboxylic acid]
4 | 20.0 | < 15 | 25.3 | – | O=C(O)c1ccc2nc(Cc3ccc(-c4cccc(OCc5ccc(Cl)cc5F)c4)cc3F)n(C[C@@H]3CCO3)c2c1 [Compound 89, (S)-2-((3′-((4-chloro-2-fluorobenzyl)oxy)-3-fluoro-[1,1′-biphenyl]-4-yl)methyl)-1-(oxetan-2-ylmethyl)-1H-benzo[d]imidazole-6-carboxylic acid]
5 | 21.6 | < 15 | 29.5 ± 3.21 | – | O=C(O)c1ccc2nc(Cc3ccc(-c4ncc(F)c(OCc5ccc(Cl)cc5F)n4)cc3F)n(C[C@@H]3CCO3)c2c1 [Compound 90, (S)-2-(4-(4-((4-chloro-2-fluorobenzyl)oxy)-5-fluoropyrimidin-2-yl)-2-fluorobenzyl)-1-(oxetan-2-ylmethyl)-1H-benzo[d]imidazole-6-carboxylic acid]
6 | 21.6 | < 15 | 35.8 | – | O=C(O)c1ccc2nc(Cc3ccc(-c4nc(OCc5ccc(Cl)cc5F)ncc4F)cc3F)n(C[C@@H]3CCO3)c2c1 [Compound 91, (S)-2-(4-(2-(4-chloro-2-fluorobenzyloxy)-5-fluoropyrimidin-4-yl)-2-fluorobenzyl)-1-(oxetan-2-ylmethyl)-1H-benzo[d]imidazole-6-carboxylic acid]
7 | 27.3 ± 7.75 | < 15 | – | 33.3 | O=C(O)c1ccc2nc(Cc3ccc(-c4cccc(OCc5ccc(Cl)cc5F)n4)cc3)n(C[C@@H]3CCO3)c2c1 [Compound 94, (S)-2-(4-(6-((4-chloro-2-fluorobenzyl)oxy)pyridin-2-yl)benzyl)-1-(oxetan-2-ylmethyl)-1H-benzo[d]imidazole-6-carboxylic acid]
8 | 3.08 | > 1000 | 1.05 | – | O=C(O)c1ccc2nc(Cc3ccc(-c4cccc(OCc5ccc(Cl)cc5F)n4)cn3)n(C[C@@H]3CCO3)c2c1 [Compound 101, (S)-2-((6-((4-chloro-2-fluorobenzyl)oxy)-[2,3′-bipyridin]-6′-yl)methyl)-1-(oxetan-2-ylmethyl)-1H-benzo[d]imidazole-6-carboxylicacid]
9 | 25.4 ± 1.39 | < 15 | 47.3 ± 4.55 | – | O=C(O)c1ccc2nc(Cc3ccc(-c4cccc(OCc5ccc(Cl)cc5F)n4)c(F)c3F)n(C[C@@H]3CCO3)c2c1 [Compound 262, (S)-2-(4-(6-(4-chloro-2-fluorobenzyloxy)pyridin-2-yl)-2,3-difluorobenzyl)-1-(oxetan-2-ylmethyl)-1H-benzo[d]imidazole-6-carboxylic acid]
10 | 30.2 ± 6.53 | < 15 | 41.7 ± 3.45 | – | O=C(O)c1ccc2nc(Cc3ccc(-c4ccc(F)c(OCc5ccc(F)cc5F)n4)c(F)c3)n(C[C@@H]3CCO3)c2n1 [Compound 267, (S)-2-(4-(6-(2,4-difluorobenzyloxy)-5-fluoropyridin-2-yl)-3-fluorobenzyl)-3-(oxetan-2-ylmethyl)-3H-imidazo[4,5-b]pyridine-5-carboxylic acid]
11 | 23.0 | < 15 | 39.3 ± 4.96 | – | O=C(O)c1ccc2nc(Cc3ccc(-c4ccc(F)c(OCc5ccc(F)cc5F)n4)cc3F)n(C[C@@H]3CCO3)c2n1 [Compound 277, (S)-2-(4-(6-(2,4-difluorobenzyloxy)-5-fluoropyridin-2-yl)-2-fluorobenzyl)-3-(oxetan-2-ylmethyl)-3H-imidazo[4,5-b]pyridine-5-carboxylic acid]
12 | 36.5 | < 15 | 48.5 ± 6.64 | – | O=C(O)c1ccc2nc(Cc3ccc(-c4cccc(OCc5ccc(Cl)cc5F)n4)cc3F)n(C[C@@H]3CCO3)c2n1 [Compound 281, 2-[[4-[6-[(4-chloro-2-fluoro-phenyl)methoxy]-2-pyridyl]-2-fluoro-phenyl]methyl]-3-[[(2S)-oxetan-2-yl]methyl]imidazo[4,5-b]pyridine-5-carboxylic acid]
13 | 21.6 ± 3.52 | < 15 | 39.9 ± 4.4 | – | O=C(O)c1ccc2nc(Cc3ccc(-c4cccc(OCc5ccc(F)cc5F)n4)c(F)c3)n(C[C@@H]3CCO3)c2n1 [Compound 290, (S)-2-(4-(6-((2,4-difluorobenzyl)oxy)pyridin-2-yl)-3-fluorobenzyl)-3-(oxetan-2-ylmethyl)-3H-imidazo[4,5-b]pyridine-5-carboxylic acid]
14 | 22.8 ± 0.142 | < 15 | 29.4 ± 6.84 | – | N#Cc1ccc(COc2ncc(F)c(-c3ccc(Cc4nc5ccc(C(=O)O)nc5n4C[C@@H]4CCO4)c(F)c3)n2)c(F)c1 [Compound 291, (S)-2-(4-(2-((4-cyano-2-fluorobenzyl)oxy)-5-fluoropyrimidin-4-yl)-2-fluorobenzyl)-3-(oxetan-2-ylmethyl)-3H-imidazo[4,5-b]pyridine-5-carboxylic acid]
15 | 33.8 ± 2.73 | < 15 | 46.8 ± 7.21 | – | N#Cc1ccc(COc2cccc(-c3ccc(Cc4nc5ccc(C(=O)O)c(F)c5n4C[C@@H]4CCO4)cc3F)n2)c(F)c1 [Compound 307, (S)-2-(4-(6-((4-cyano-2-fluorobenzyl)oxy)pyridin-2-yl)-3-fluorobenzyl)-7-fluoro-1-(oxetan-2-ylmethyl)-1H-benzo[d]imidazole-6-carboxylic acid]
16 | 48.8 ± 6.11 | < 15 | 62.8 ± 4.09 | – | O=C(O)c1ccc2nc(Cc3ccc(-c4cccc(OCc5ccc(Cl)cc5F)n4)c(F)c3)n(C[C@@H]3CCO3)c2c1F [Compound 308, (S)-2-(4-(6-((4-chloro-2-fluorobenzyl)oxy)pyridin-2-yl)-3-fluorobenzyl)-7-fluoro-1-(oxetan-2-ylmethyl)-1H-benzo[d]imidazole-6-carboxylic acid]

Row | SMILES | β-arrestin internalization Bmax (POC) (GLP1R [1]) | EC50 (GLP1R [2]) [nM] | Emax (GLP1R [3]) [%] | β-arrestin recruitment Bmax (%) (GLP1R [3]; partial maximum relative effect at the highest concentration tested (top 10 μM), relative to Bmax of GLP-1 (7-37), PathHunter CHO-K1 GLP1R β-Arrestin cells)
17 | O=C(O)c1ccc2nc(Cc3ccc(-c4cccc(OCc5ccc(Cl)cc5F)n4)nc3)n(C[C@@H]3CCO3)c2c1 [Compound 100, (S)-2-((6′-(4-chloro-2-fluorobenzyloxy)-2,2′-bipyridin-5-yl)methyl)-1-(oxetan-2-ylmethyl)-1H-benzo[d]imidazole-6-carboxylic acid] | 0.881 | > 1000 | 0.971 | –
